# Measured values published in US5998376A, “Substance P treatment for immunostimulation” (priority 1998, dated 1999).
# Key:
# splenic B cells = assay: Mitogenesis of spleen B cells (lipopolysaccharide, 3H-thymidine) from LP-BM5-infected mice given SP aerosol; type: in vivo, C57BL6 mice; details: LP-BM5 virus + SP aerosol 1 μM
# Experimental: (§1) C57BL6 mice, average weight of 25-30 grams, were infected with the LP-BM5 murine leukemia retrovirus to simulate the human AIDS virus. […] The mice were divided into two groups; LP-BM5 virus only and LP-BM5 virus +substance P aerosol therapy at 1 μM concentration. The mice were killed at 4 and 8 weeks post-inoculation.
# The proliferation of splenic B and T cells induced by mitogens was determined by incorporation of radioactive thymidine. Splenocytes in 0.1 ml of cell culture medium (1×10^7 cells/ml) were cultured in 96-well flat-bottom cultured plates with ConA and lipopolysaccharide, 5 micrograms/ml). The cells were incubated at 37° C., 5% CO2 incubator for 72 hours for ConA-induced T cell proliferation, and then pulsed with ^3 H-thymidine (1 microCurie/well). After 4 hours for radioactive thymidine uptake, the cells were harvested by a cell sample harvester. Radioactivity was determined by a liquid scintillation counter (Tri-Carb, 2200CA). The T and B cell mitogenesis values were recorded as counts per min in 1×10^7 cells/ml.
# immune system = assay: Immune parameters and immune function (blastogenesis, mixed lymphocyte response) after JP-8 exposure; type: in vivo, C57B16 mice
# Experimental: At 24 hours after the last exposure, the animals were sacrificed and the effects of exposure on the immune system examined. Immune organs (spleen, thymus, blood, lymph nodes and bone marrow) were recovered and analyzed for effects on organ weight, total cell numbers, immune cell populations (by differentials), and lymphocyte subpopulations (by flow cytometry). Assays were also performed to examine the effects of exposure on immune function. […] Similar effects on immune cell subpopulations were also observed in lymph nodes. In the thymus it appeared that the immature CD4^+ CD8^+ cells were differentially lost due to exposure. […] However, these effects are prevented or ameliorated by treatment of the animals with Substance P.
# Blastogenesis and Mixed lymphocyte response (MLR) assays: Blastogenesis and MLR assays are set up in 96 well microtitre plated in replicates of 6. Responder cells are plated at 1×10^5 cells/well and are stimulated as indicated (with either media, alloantigen, growth factors or mitogens). After 72 hours the plates are pulsed with 1 uCi/well of ^3 H-thymidine for 18 hours. The wells are then harvested using a Ph.D. cell harvester, the filters dried and scintillation counting performed. The data is presented as the stimulated dpm and is represented as the stimulation index (SI) (Harris et al., Proc. Natl. Acad Sci. USA 89:10006 (1992)).
# splenic T cells = assay: Mitogenesis of spleen T cells (ConA, 3H-thymidine) from LP-BM5-infected mice given SP aerosol; type: in vivo, C57BL6 mice
# Experimental: as §1
# The proliferation of splenic B and T cells induced by mitogens was determined by incorporation of radioactive thymidine. Splenocytes in 0.1 ml of cell culture medium (1×10^7 cells/ml) were cultured in 96-well flat-bottom cultured plates with ConA and lipopolysaccharide, 5 micrograms/ml). […] After 4 hours for radioactive thymidine uptake, the cells were harvested by a cell sample harvester. Radioactivity was determined by a liquid scintillation counter (Tri-Carb, 2200CA). The T and B cell mitogenesis values were recorded as counts per min in 1×10^7 cells/ml.
# [1] = system: spleen, thymus and bone marrow cells; assay: Substance P aerosol therapy in JP-8 jet fuel exposed mice, cell numbers (FIGS. 1-3); type: in vivo, C57BL6 mice
# Description: Since mice are nose-breathers, they were exposed to the aerosol/vapor mixture via nose-only presentation while they were held in individual loading tubes. The tubes were nose-fitted to receiving adaptors that originated from the common anodized aluminum exposure chamber (volume 0.3 m^3, IN-TOX, Albuquerque, N.Mex.). Noses were positioned in the exposure ports to minimize systemic absorption that might occur during total body exposure or through the process of self-grooming after exposure. The mice were rotated on a daily basis through the 24-adaptor positions of the exposure chamber. This was done to minimize proximity to the jet fuel source as a variable in exposure concentration or composition. Passive entrainment of the jet fuel aerosol/vapor mix and room air through the IN-TOX chamber was conducted by vacuum (15 liters/min). The vacuum was applied to the exposure chamber on the side opposite the fuel source. Animal exposure ports not in use were sealed during the exposure period. Longitudinal controls were sham-exposed in a manner identical to those receiving jet fuel, except that only room air was introduced into the exposure chamber. The exposure chamber was thoroughly cleaned prior to the longitudinal control group's exposure.
# The substance P aerosol therapy was performed at the completion of the JP-8 jet fuel exposure. The nebulizer was modified with clean hoses and a new sonication crucible. […] The substance P aerosol therapy was conducted for the same seven day period over a total time period of nine days as the JP-8 jet fuel exposure regimen.
# [2] = system: melanoma B16 cancer cells; assay: B16 melanoma tail vein injection, tumor colonies in both lungs; type: in vivo, mice; details: for mean number of tumor colonies observed in both lungs: 1×10^4 B16 cells/mouse, 4 weeks post-injection
# Description: The mice were infected with syngeneic […] melanoma B16 cancer cells by tail vein injection. The dose was 1×10^4 B16 tumor cells/mouse. […] The second group of mice was given their substance P aerosol therapy starting one week after the injection of the B16 cells. The aerosol therapy lasted for one week. Both groups of mice and their corresponding controls (injection with B16 cells and no substance P therapy) were killed at 4 weeks post-injection with B16 cells. The data is presented as the mean number of tumor colonies observed in both lungs.
# [3] = system: LP-BM5 murine leukemia retrovirus; assay: Mouse AIDS model, spleen changes and total cell numbers; type: in vivo, C57BL6 mice
# Experimental: as §1
# [4] = 4 weeks after infection, mean (SEM)
# [5] = LP-BM5 virus + SP aerosol 1 μM, 4 weeks after infection, mean (SEM)
# [6] = JP-8 exposed mice, one micromolar aerosol 15 minutes
substance,measurement,setting,value
Substance P [SP],"Spleen B Cell Mitogenesis, 24 Hours in Culture",splenic B cells; [4],2063 (448) counts per min
same,"Spleen B Cell Mitogenesis, 48 Hours in Culture",splenic B cells; [4],1369 (231) counts per min
same,"Spleen B Cell Mitogenesis, 72 hours in culture",splenic B cells; [4],1642 (158) counts per min
same,"Spleen B Cell Mitogenesis, 72 hours in culture","splenic B cells; 8 weeks post-infection, not significant",3227 (854) counts per min
same,deleterious effects of chronic JP-8 jet fuel exposure to the immune system,immune system; Substance P aerosol therapy,reversed and/or prevented
same,majority of the effects of JP-8 jet fuel exposure on the immune system,immune system; Substance P at both 1 uM and 1 nM doses,could be significantly reversed
same,effects of JP-8 exposure on all measured immune parameters,"immune system; mice exposed to 500, 1000 or 2500 mg aerosolized JP-8, 7 days 1 hour/day, treated with Substance P",invariably reversed the effects on all measured parameters of JP-8 exposure to almost normal levels
same,"Spleen T Cell Mitogenesis, 24 Hours in Culture","splenic T cells; LP-BM5 virus + SP aerosol 1 μM 3 days/week, 4 weeks after infection, mean (SEM)",2963 (56) counts per min
same,"Spleen T Cell Mitogenesis, 48 Hours in Culture",splenic T cells; [5],2769 (23) counts per min
same,"Spleen T Cell Mitogenesis, 72 hours in culture",splenic T cells; [5],4362 (69) counts per min
same,"Spleen T Cell Mitogenesis, 72 hours in culture","splenic T cells; LP-BM5 virus + SP aerosol 1 μM, 8 weeks post-infection",3127 (77) counts per min
same,effect on spleen cell number (FIG. 1),"[1]; JP-8 500 or 2500 mg/m^3, 1 hour/day 7 days, one micromolar aerosol 15 minutes after each exposure",totally reverse the effect of the jet fuel on the spleen cell number
same,effect on bone marrow cells (FIG. 3),[1]; [6],augments the stimulation substantially
same,effect on thymus cell number (FIG. 2),[1]; [6],substantially reverses the effect on cell number
same,mean number of tumor colonies observed in both lungs,[2]; 1 μM SP aerosol 15 min/day 7 days starting immediately after injection,39
same,mean number of tumor colonies observed in both lungs,[2]; 1 μM SP aerosol for one week starting one week after injection,1
same,rate of tumor colonization,"[2]; tumor-challenged mammals, aerosol therapy",reduce the rate of tumor colonization
same,changes in the mouse spleens,"[3]; LP-BM5 mouse model, SP aerosol therapy",caused significant changes in the mouse spleens
same,total cell numbers (spleen) versus LP-BM5 group,"[3]; SP+Virus Group, 4 weeks after infection",not accompanied by an increase in total cell numbers
